Results: patent US10947242B2, “[1,2,4]triazolo[1,5and#8208;A]pyrimidine compounds as PDE2 inhibitors” (Janssen Pharmaceutica NV, priority 2016, dated 2021)
Where two headings read alike, the source gives them in different places.

How the values were obtained:
[1] = target: T1, Human recombinant PDE2A (hPDE2A) (Homo sapiens, UniProt O00408); assay: In vitro assay PDE2A (SPA, 3H-cGMP hydrolysis); type: biochemical; details: for IC50: read-out: hPDE2A pIC50 (converted); for Emax: read-out: hPDE2A Emax
T1 construct: His tag (inferred from metal chelate purification); made in house; host or cells: Sf9 insect cells (baculovirus)

[2] = target: T2, Human recombinant PDE3A (hPDE3A) (Homo sapiens, UniProt Q14432); assay: In vitro assay PDE3A (SPA, 3H-cAMP hydrolysis); type: biochemical; details: for IC50: hPDE3B pIC50, read-out: pIC50 (converted); for Emax: read-out: hPDE3B Emax, read-out: Emax;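 on all read-outs here: the method names PDE3A and the table heading PDE3B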
T2 construct: purchased Scottish Biomedical; host or cells: Sf9 insect cells
Summary of the method: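 Radiometric SPA measuring [3H]-cAMP hydrolysis (0.4 μM cAMP, 2.4 μCi/ml) over 60 min at room temperature, in Tris pH 7.8 buffer with MgCl2 and EGTA, 1% DMSO. Enzyme: recombinant human brain PDE3A expressed in Sf9 cells, used as partially purified lysate. Counts compared with enzyme-free blanks and vehicle controls.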

[3] = target: T3, Human recombinant PDE10A (hPDE10A) (Homo sapiens, UniProt Q9Y233); assay: In vitro assay PDE10A, human clone (SPA, 3H-cAMP hydrolysis); type: biochemical
T3 construct: His tag (inferred from metal chelate purification); made in house; host or cells: Sf9 insect cells (baculovirus)
Summary of the method: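 Hydrolysis of 3H-cAMP (60 nM cAMP, 0.008 μCi tracer) proceeded for 60 min at room temperature, with the product detected by SPA bead scintillation counting. The enzyme was hPDE10A from baculovirus-infected Sf9 cells in Tris pH 7.8 buffer with MgCl2 and EGTA, and compounds were at 1% DMSO final. Blanks lacked enzyme.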

PDE2A = target: T4, PDE2A (Rattus norvegicus, UniProt Q01062); assay: PDE2 occupancy by test compounds, ex-vivo autoradiography with [3H]B-17a; type: in vivo, Male Wistar rats; details: 10 mg/kg, route PO (oral), percentage receptor occupancy, ex-vivo autoradiography, striatum
T4 construct: Twenty μm-thick striatal sections were cut; from tissue; host or cells: rat brain, striatal sections
T4 sequence (Q01062 1-928): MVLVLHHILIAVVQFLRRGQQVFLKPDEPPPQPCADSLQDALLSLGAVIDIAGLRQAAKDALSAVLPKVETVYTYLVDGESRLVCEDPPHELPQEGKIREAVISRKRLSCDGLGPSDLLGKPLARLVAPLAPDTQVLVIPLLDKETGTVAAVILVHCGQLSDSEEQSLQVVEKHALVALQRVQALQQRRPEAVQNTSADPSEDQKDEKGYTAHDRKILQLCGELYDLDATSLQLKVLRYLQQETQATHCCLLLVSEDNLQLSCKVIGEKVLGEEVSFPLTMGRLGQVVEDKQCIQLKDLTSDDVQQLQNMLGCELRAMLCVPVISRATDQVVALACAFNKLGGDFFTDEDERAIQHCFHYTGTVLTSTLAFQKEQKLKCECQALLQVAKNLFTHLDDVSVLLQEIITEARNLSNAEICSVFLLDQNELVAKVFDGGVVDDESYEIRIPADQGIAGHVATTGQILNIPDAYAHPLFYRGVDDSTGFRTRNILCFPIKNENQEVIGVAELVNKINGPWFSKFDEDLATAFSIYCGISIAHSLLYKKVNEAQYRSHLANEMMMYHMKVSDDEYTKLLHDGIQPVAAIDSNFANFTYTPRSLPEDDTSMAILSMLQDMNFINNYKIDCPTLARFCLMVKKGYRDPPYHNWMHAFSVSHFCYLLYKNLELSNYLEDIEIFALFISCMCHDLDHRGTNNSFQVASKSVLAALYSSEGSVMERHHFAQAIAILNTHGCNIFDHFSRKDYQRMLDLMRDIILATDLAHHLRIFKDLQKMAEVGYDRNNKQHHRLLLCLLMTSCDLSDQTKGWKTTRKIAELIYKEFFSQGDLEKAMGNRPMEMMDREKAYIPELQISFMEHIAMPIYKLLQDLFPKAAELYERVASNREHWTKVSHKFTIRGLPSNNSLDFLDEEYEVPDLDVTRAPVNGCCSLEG

[4] = human clone by default (no (r) mark), read-out: hPDE10A2 or rPDE10A2 Emax
[5] = human clone by default (no (r) mark), read-out: hPDE10A2 or rPDE10A2 pIC50 (converted)

T1 sequence (O00408 whole entry): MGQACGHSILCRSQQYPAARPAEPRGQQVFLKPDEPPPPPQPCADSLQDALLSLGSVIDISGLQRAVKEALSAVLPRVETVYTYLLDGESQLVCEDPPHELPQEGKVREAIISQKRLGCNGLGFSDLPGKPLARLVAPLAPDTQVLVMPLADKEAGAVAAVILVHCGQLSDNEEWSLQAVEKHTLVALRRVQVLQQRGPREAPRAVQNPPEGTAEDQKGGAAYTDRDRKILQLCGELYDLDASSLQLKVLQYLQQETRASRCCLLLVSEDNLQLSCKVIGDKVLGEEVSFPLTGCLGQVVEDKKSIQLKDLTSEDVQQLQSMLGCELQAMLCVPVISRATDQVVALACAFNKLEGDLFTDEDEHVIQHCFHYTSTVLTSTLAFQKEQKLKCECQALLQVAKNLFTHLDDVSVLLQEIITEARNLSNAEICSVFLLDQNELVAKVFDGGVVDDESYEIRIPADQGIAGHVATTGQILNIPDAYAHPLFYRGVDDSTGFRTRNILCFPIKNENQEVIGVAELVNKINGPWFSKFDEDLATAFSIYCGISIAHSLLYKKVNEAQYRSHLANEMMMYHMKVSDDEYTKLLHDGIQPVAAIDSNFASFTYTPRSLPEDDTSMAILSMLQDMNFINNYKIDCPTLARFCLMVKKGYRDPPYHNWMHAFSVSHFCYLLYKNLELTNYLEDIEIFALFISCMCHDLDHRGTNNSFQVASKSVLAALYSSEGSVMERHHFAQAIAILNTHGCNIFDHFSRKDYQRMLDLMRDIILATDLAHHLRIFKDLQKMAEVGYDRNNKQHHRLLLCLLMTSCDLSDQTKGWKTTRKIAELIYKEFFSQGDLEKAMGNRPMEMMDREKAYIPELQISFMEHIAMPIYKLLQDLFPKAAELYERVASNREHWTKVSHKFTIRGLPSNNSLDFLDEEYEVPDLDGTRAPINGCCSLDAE
T2 sequence (Q14432 whole entry): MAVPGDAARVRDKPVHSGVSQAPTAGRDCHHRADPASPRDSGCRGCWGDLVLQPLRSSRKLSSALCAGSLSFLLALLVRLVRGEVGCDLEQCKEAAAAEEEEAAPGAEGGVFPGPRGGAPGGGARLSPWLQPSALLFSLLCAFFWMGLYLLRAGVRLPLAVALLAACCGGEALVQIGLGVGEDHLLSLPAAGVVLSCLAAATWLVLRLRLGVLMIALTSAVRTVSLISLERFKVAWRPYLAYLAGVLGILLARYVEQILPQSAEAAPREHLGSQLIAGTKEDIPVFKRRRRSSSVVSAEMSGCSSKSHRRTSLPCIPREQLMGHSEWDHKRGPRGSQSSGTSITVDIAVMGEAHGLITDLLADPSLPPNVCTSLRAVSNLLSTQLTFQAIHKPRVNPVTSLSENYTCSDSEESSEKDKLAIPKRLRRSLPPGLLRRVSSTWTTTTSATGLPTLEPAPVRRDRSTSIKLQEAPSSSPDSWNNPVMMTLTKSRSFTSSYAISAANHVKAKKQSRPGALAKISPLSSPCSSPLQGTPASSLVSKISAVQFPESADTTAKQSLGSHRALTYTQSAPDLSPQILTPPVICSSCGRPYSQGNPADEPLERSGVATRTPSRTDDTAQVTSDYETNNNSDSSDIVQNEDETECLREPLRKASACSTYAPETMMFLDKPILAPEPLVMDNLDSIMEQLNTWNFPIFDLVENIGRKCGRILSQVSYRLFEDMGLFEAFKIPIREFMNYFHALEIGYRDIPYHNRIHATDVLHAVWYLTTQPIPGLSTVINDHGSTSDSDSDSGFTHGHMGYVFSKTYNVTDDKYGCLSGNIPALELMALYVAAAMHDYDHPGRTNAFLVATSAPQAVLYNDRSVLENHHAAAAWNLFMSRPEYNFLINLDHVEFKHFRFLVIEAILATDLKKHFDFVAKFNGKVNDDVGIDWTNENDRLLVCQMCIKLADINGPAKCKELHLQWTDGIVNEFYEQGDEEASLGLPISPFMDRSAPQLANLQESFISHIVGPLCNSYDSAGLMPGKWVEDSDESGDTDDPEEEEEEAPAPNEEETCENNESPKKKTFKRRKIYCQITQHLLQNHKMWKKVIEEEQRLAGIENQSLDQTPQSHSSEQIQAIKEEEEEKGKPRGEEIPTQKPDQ
T3 sequence (Q9Y233 267-1055): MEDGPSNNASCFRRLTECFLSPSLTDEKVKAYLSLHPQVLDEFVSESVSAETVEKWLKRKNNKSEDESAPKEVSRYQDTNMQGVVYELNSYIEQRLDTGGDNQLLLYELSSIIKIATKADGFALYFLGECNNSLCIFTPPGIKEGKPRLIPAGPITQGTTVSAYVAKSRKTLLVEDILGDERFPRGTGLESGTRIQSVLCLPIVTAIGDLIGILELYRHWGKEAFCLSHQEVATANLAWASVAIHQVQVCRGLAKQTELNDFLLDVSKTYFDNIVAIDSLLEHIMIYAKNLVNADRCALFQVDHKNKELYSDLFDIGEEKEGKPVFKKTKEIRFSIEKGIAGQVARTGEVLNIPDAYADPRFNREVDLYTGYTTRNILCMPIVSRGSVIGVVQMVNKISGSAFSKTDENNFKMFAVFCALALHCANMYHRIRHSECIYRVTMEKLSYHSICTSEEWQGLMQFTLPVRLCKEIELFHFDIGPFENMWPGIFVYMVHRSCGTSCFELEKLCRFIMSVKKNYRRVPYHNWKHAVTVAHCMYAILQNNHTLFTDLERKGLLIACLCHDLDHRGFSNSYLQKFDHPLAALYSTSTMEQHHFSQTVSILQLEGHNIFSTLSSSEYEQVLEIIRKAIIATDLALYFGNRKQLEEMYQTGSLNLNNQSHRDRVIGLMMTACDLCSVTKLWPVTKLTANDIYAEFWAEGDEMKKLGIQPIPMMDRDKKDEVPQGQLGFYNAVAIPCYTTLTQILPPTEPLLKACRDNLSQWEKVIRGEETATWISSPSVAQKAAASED

Row | IC50 ([1]; human recombinant PDE2A, 10 μM cGMP substrate) | Emax ([1]; human recombinant PDE2A) | melting point | Emax ([3]; human clone (h), default, read-out: hPDE10A2 Emax) | IC50 ([3]; human clone (h), default, read-out: hPDE10A2 pIC50 (converted)) | receptor occupancy at 10 mg/kg (PDE2A; po) | SMILES | Emax [1] | IC50 [1] | IC50 [2] | Emax [2] | Emax [3, 4] | IC50 [3, 5] | receptor occupancy at 10 mg/kg (PDE2A)
1 | 18.6 nM | 99% | 167.52 °C | 97% | 263 nM |  | C[C@@H]1CCN(C(=O)c2ccc(F)c(C(F)(F)F)c2)C[C@H]1c1cc(C(F)F)nc2ncnn12 [Compound 194] | 99% | 18.6 nM | 4570 nM | 57% |  |  | 
2 |  |  | 122.37 °C |  |  |  | C[C@H]1CCN(C(=O)c2ccc3occc3c2)C[C@@H]1c1cc(C(F)F)nc2ncnn12 [Compound 221] |  |  |  |  |  |  | 
3 |  |  |  |  |  |  | O=C(c1cc(OC(F)F)cc(C2CC2)c1)N1[C@H]2CC[C@H](c3cc(C(F)F)nc4ncnn34)[C@@H]1CC2 [Compound 352] | 100% | 7.59 nM | 1820 nM | 89% | 99% | 479 nM | 16%
4 |  |  |  |  |  |  | CN(C)c1ccc(C(=O)N2[C@H]3CC[C@H](c4cc(C(F)F)nc5ncnn45)[C@@H]2CC3)cc1 [Compound 362] | 99% | 1.7 nM | 871 nM | 88% | 93% | 794 nM | 3%
5 |  |  |  |  |  |  | COc1ccc(C(=O)N2[C@H]3CC[C@H](c4cc(C(F)F)nc5ncnn45)[C@@H]2CC3)cc1OC [Compound 364] | 101% | 3.89 nM | 3160 nM | 75% | 85% | 1820 nM | -5%
6 |  |  |  |  |  |  | Cc1cc(C(=O)N2[C@H]3CC[C@H](c4cc(C(F)F)nc5ncnn45)[C@@H]2CC3)cnc1C [Compound 366] | 99% | 10.2 nM | > 10000 nM | 22% | 64% | 5750 nM | 18%
7 |  |  |  |  |  |  | Cc1nc2ccc(C(=O)N3[C@H]4CC[C@H](c5cc(C(F)F)nc6ncnn56)[C@@H]3CC4)cc2s1 [Compound 368] | 101% | 6.17 nM | 6460 nM | 61% | 99% | 251 nM | 11%
8 |  |  |  |  |  |  | Cc1ccc(C(=O)N2[C@H]3CC[C@H](c4cc(C(F)F)nc5ncnn45)[C@@H]2CC3)cc1Cl [Compound 369] | 100% | 4.9 nM | 3720 nM | 72% | 93% | 724 nM | 9%
9 |  |  |  |  |  | 3% | Cc1cc([C@@H]2CN(C(=O)c3cc(C4CC4)ncc3Cl)CC[C@H]2C)n2ncnc2n1 [Compound 391] | 99% | 2.4 nM | 2240 nM | 81% | 97% | 63.1 nM | 
10 |  |  |  |  |  | 46% | Cc1cc(C(=O)N2CC[C@@H](C)[C@H](c3cc(C(F)F)nc4ncnn34)C2)c(F)c(OC2CC2)n1 [Compound 392] | 99% | 1.12 nM | 447 nM | 97% | 93% | 263 nM | 
11 |  |  |  |  |  | 29% | COc1cc(C(=O)N2CC[C@@H](C)[C@H](c3cc(C(F)F)nc4ncnn34)C2)c(F)c(C)n1 [Compound 398] | 99% | 4.9 nM | 5250 nM | 67% | 95% | 589 nM | 
